Results published in patent US8748568B2, “Isolated A-type FHF N-terminal domain peptides and methods of use” (Research Foundation of The City University of New York, priority 2009, dated 2014).
“Also recorded” adds a separate entry of the source.

How the values were obtained:
TTX-resistant Nav1.6 [1] = assay: Voltage dependence of steady state inactivation of Nav1.6 in Neuro2A cells; assay type: cell-based
Description: A Neuro2A cell expressing TTX-resistant Nav1.6 and transfected to express FHF2A was analyzed for the voltage dependence of steady state inactivation, long-term inactivation, and activation, using specific voltage command protocols. For steady state inactivation, cells were held at different “test command” voltages for 60 milliseconds followed immediately by further depolarization to 0 mV; the residual peak current derives from channels not inactivated (i.e. still available). For long term inactivation, cells were held at different “test command” voltages for 60 milliseconds, with each test command followed by 40 millisecond recovery at −90 mV before depolarization to 0 mV; peak current derives from channels that have not undergone long-term inactivation. […]
(§1) Neuro2A cells expressing TTX-resistant Nav1.6 were analyzed for TTX-resistant sodium currents following whole cell patch clamp using pipette solution containing peptide corresponding to N-terminal residues 2-21 of FHF2A (referred to as ANTD, for A-type N-terminal domain). Peptide injected cells were subjected to four 16 millisecond depolarization cycles (0 mV) separated by 40 millisecond recovery periods (−90 mV), and peak inward Nav1.6-mediated sodium currents were recorded for each depolarization.

TTX-resistant Nav1.6 [2] = assay: Whole cell voltage clamp of Nav1.6 currents in Neuro2A cells: long-term inactivation through repeated depolarization cycles; assay type: cell-based
Description: […]. Nav1.6 currents were analyzed in cells without FHFs (upper panels) or after transient transfection with a DNA vector expressing full-length FHF2A protein (lower panels). The holding voltage was −90 mV. Cells were subjected to two 6 millisecond depolarizations at 0 mV separated by −90 mV interpulse recovery periods of 0.5 to 20 msec (left panels). All 40 command sweeps are shown.
Neuro2A cells expressing TTX-resistant Nav1.6 were transfected with DNA expression vectors for FHF1A, FHF1B, FHF2A, FHF2B, or FHF4B. Transfected cells in the presence of TTX were subjected to four 16 millisecond depolarization cycles (0 mV) separated by 40 millisecond recovery periods (−90 mV), and peak inward Nav1.6-mediated sodium currents were recorded for each depolarization.
A Neuro2A cell expressing TTX-resistant Nav1.6 and transfected to express FHF2A was analyzed for the voltage dependence of steady state inactivation, long-term inactivation, and activation, using specific voltage command protocols. For steady state inactivation, cells were held at different “test command” voltages for 60 milliseconds followed immediately by further depolarization to 0 mV; the residual peak current derives from channels not inactivated (i.e. still available). For long term inactivation, cells were held at different “test command” voltages for 60 milliseconds, with each test command followed by 40 millisecond recovery at −90 mV before depolarization to 0 mV; peak current derives from channels that have not undergone long-term inactivation. For activation, cells were depolarized to different “test command” voltages, and peak inward currents were converted to percent maximum conductance to reflect percentage of channels transiently activated.
as §1

[3] = test system: mutant VGSC in which the fast inactivation particle was disabled (Nav1.6); assay: Long-term inactivation of mutant VGSC with disabled fast inactivation particle, whole cell voltage clamp; assay type: cell-based; conditions: single cycle of membrane depolarization
Description: . Nav1.6 currents were analyzed in cells without FHFs (left panels—FIG. 7) or after transient transfection with a DNA vector expressing full-length FHF2A protein (right panels—FIG. 7).

[4] = test system: cerebellar granule neurons; assay: Voltage clamp and current clamp of cultured cerebellar granule neurons; assay type: cell-based, Mouse; conditions: 1 mM peptide injected
Description: Mouse cerebellar granule neurons were cultured for 14 days under conditions that promoted their maturation to a fully excitable state. These neurons were Whole cell patched and subjected to voltage clamp and current clamp protocols. In voltage clamp, neurons were depolarized four times for 16 milliseconds to 0 mV with 40 millisecond interpulse recoveries at −90 mV (left panels). In current clamp, positive current injection for 800 milliseconds was used to trigger firing of action potentials. A range of currents were tested, and only the recordings from currents giving highest frequency and amplitude of action potentials are shown (right panels).

[5] = four 16 msec depolarization cycles at 0 mV separated by 40 msec recoveries at -90 mV, cells transfected with FHF expression vector

FHF2A: full-length FHF2A protein, fibroblast growth factor homologous factor, expressed from a transfected DNA vector (AAAIASSLIRQKRQAREREK)
effect on voltage dependence of steady state (fast) inactivation of Nav1.6 (TTX-resistant Nav1.6 [1]): depolarizing shift
percentage of channels that undergo long-term inactivation (TTX-resistant Nav1.6 [2]; 60 msec test command, 40 msec recovery at -90 mV, then 0 mV, not increased by further depolarization): 35-40%
long-term inactivation of Nav1.6 (TTX-resistant Nav1.6 [2]; [5]): induce long-term inactivation
long-term inactivation of Nav1.6 (TTX-resistant Nav1.6 [2]; four 16 msec depolarization cycles at 0 mV separated by 40 msec recoveries at -90 mV, cells transfected with FHF expression vector, listed as FHF2A protein): channels accumulate into a long-term inactivated state with each depolarization cycle; also recorded: induces both long-term inactivation
voltage at which long-term inactivation occurs relative to steady state inactivation (TTX-resistant Nav1.6 [2]; test command voltage protocols, FHF2A-transfected cell): far more depolarized voltage than steady state inactivation
fraction of channels that do not rapidly recover from inactivation (TTX-resistant Nav1.6 [2]; two 6 msec depolarizations at 0 mV, -90 mV interpulse recovery 0.5 to 20 msec, cells transfected with FHF vector): approximately one-third
channels driven into long-term inactivation [3]: nearly all channels being driven into long-term inactivation

AAAIASSLIRQKRQAREREK [ANTD peptide, peptide corresponding to N-terminal residues 2-21 of FHF2A]
action potentials generated upon current injection ([4]; current clamp, 800 msec positive current injection): only a single action potential
inward sodium currents ([4]; voltage clamp, four 16 msec depolarizations to 0 mV, 40 msec recoveries at -90 mV): decrease with each cycle of depolarization
outward potassium currents ([4]; voltage clamp, four depolarization cycles): unaffected
effect on voltage dependence of steady state (fast) inactivation of Nav1.6 (TTX-resistant Nav1.6 [1]): no significant effect
long-term inactivation of Nav1.6 (TTX-resistant Nav1.6 [2]; 0.5 mM peptide in pipette solution, four 16 msec depolarization cycles, 40 msec recoveries): induced long-term inactivation, albeit to lesser degree
long-term inactivation of Nav1.6 (TTX-resistant Nav1.6 [2]; 1 mM peptide in pipette solution, four 16 msec depolarization cycles, 40 msec recoveries): robust accumulation into long-term inactivation
dose dependence of peptide-induced long-term inactivation (TTX-resistant Nav1.6 [2]; 1 mM versus 0.5 mM): dose dependent
onset of long-term inactivation (TTX-resistant Nav1.6 [2]; 1 millimolar peptide, compared with native protein): faster onset of long-term inactivation than the native protein
channels driven into long-term inactivation [3]: nearly all

B1: FHF2B: B-type fibroblast growth factor homologous factor expressed from a DNA expression vector (protein)
chain: MALLRKSYSEPQLKGIVTKLYSRQGYHLQLQADGTIDGTKDEDSTYTLFNLIPVGLRVVAIQGVQTKLYLAMNSEGYLYTSELFTPECKFKESVFENYYVTYSSMIYRQQQSGRGWYLGLNKEGEIMKGNHVKKNKPAAHFLPKPLKVAMYKEPSLHDLTEFSRSGSGTPTKSRSVSGVLNGGKSMSHNEST
long-term inactivation of Nav1.6 (TTX-resistant Nav1.6 [2]; [5]): do not

B2: FHF4B: B-type fibroblast growth factor homologous factor expressed from a DNA expression vector (protein)
chain: MVKPVPLFRRTDFKLLLCNHKDLFFLRVSKLLDCFSPKSMWFLWNIFSKGTHMLQCLCGKSLKKNKNPTDPQLKGIVTRLYCRQGYYLQMHPDGALDGTKDDSTNSTLFNLIPVGLRVVAIQGVKTGLYIAMNGEGYLYPSELFTPECKFKESVFENYYVIYSSMLYRQQESGRAWFLGLNKEGQAMKGNRVKKTKPAAHFLPKPLEVAMYREPSLHDVGETVPKPGVTPSKSTSASAIMNGGKPVNKSKTT
long-term inactivation of Nav1.6 (TTX-resistant Nav1.6 [2]; [5]): do not

B3: FHF1B: B-type fibroblast growth factor homologous factor expressed from a DNA expression vector (protein)
chain: MESKEPQLKGIVTRLFSQQGYFLQMHPDGTIDGTKDENSDYTLFNLIPVGLRVVAIQGVKASLYVAMNGEGYLYSSDVFTPECKFKESVFENYYVIYSSTLYRQQESGRAWFLGLNKEGQIMKGNRVKKTKPSSHFVPKPIEVCMYREPSLHEIGEKQGRSRKSSGTPTMNGGKVVNQDST
long-term inactivation of Nav1.6 (TTX-resistant Nav1.6 [2]; [5]): do not
